The values below come from patent publication US7674807B2, “Heterocycle-substituted n-phenyl-phthalamide derivatives, related compounds and their use as insecticides” (Bayer CropScience AG, priority 2004, dated 2010).

Data set [1] has as its system larva of Spodoptera litura. Briefly: Test against larva of Spodoptera litura (leaf dip, sweet potato leaves). The format is in vivo. The following applies: 20 ppm concentration of the active component; third instar larvae; counted after 7 days; 25° C. The method, boiled down: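 Sweet potato leaves were dipped in emulsified compound diluted with water, air-dried, and given to 10 third-instar larvae per dish at 25° C, with fresh leaves added on days 2 and 4. Mortality was counted after 7 days and averaged over 2 dishes.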

For data set [2], the system named is Myzus persicae resistant to organophosphorous agents and carbamates. Kind of data set: Test against Myzus persicae resistant to organophosphorous agents and carbamates (spray on eggplant seedlings). The data set is classed as in vivo. The following applies: 100 ppm concentration of the effective component; 7 days after spraying; green house of 28° C. Here is the method: About 30 bred Myzus persicae resistant to organophosphorous agents and carbamates were inoculated per 1 seedling of eggplant planted in a vinyl pot of 6 cm diameter. One day after the inoculation, a sufficient amount of a diluted aqueous solution of a prescribed concentration of an active compound prepared as mentioned above, was sprayed by using a spray gun. After spraying it was placed in a green house of 28° C. and the rate of death was calculated 7 days after the spraying. Test was repeated twice.

Data set [3] relates to larva of Cnaphalocrocis medinalis Guenee. Briefly: Test against larva of Cnaphalocrocis medinalis Guenee (sprayed paddy rice foliage). The format is in vivo. The following applies: 20 ppm concentration of the active component; second instar larvae; counted after 7 days; 25° C. In a few lines: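 Potted rice (Tamanishiki) sprayed with aqueous dilutions of compound at the prescribed concentration; air-dried leaf pieces placed in dishes with five 2nd-instar larvae at 25° C, fresh treated foliage added at days 2 and 4. Mortality counted at day 7, averaged over 2 dishes.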

`CCS(=O)(=O)CC(C)NC(=O)c1c(Cl)cccc1C(=O)Nc1ccc(Cn2nc(C(F)(F)F)nc2C(F)(F)F)cc1C` (stereo not shown) [compound 148]: the “controlling effect, rate of death” value in data set [1], in data set [2] and in data set [3] was 100% throughout.

For `CSCC(C)(C)NC(=O)c1c(Br)cccc1C(=O)Nc1ccc(Cn2nc(C(F)(F)F)nc2C(F)(F)F)cc1C` [compound 174], the “controlling effect, rate of death” value in data set [1], in data set [2] and in data set [3] was 100% throughout.

With `Cc1cc(Cn2nc(C(F)(F)F)nc2C(F)(F)F)ccc1NC(=O)c1cccc(Br)c1C(=O)NC(C)(C)CS(C)(=O)=O` [compound 176], the “controlling effect, rate of death” value in data set [1], in data set [2] and in data set [3] was 100% each time.

In the case of `Cc1cc(Cn2nc(C(F)(F)F)nc2C(F)(F)F)ccc1NC(=O)c1cccc(Br)c1C(=O)NC(C)C[S+](C)[O-]` (stereo not shown) [compound 180], the “controlling effect, rate of death” value in data set [1], in data set [2] and in data set [3] was 100% in each case.

Consider `Cc1cc(Cn2nc(C(F)(F)F)nc2C(F)(F)F)ccc1NC(=O)c1cccc(Br)c1C(=O)NC(C)CS(C)(=O)=O` (stereo not shown) [compound 181], for which the “controlling effect, rate of death” value in data set [1], in data set [2] and in data set [3] was 100% throughout.

With `CSCC(C)(C)NC(=O)c1c(I)cccc1C(=O)Nc1ccc(Cn2nc(C(F)(F)F)nc2C(F)(F)F)cc1C` [compound 211], the “controlling effect, rate of death” value in data set [1], in data set [2] and in data set [3] was 100% in each case.

For `Cc1cc(Cn2nc(C(F)(F)F)nc2C(F)(F)F)ccc1NC(=O)c1cccc(I)c1C(=O)NC(C)(C)CS(C)(=O)=O` [compound 213], the “controlling effect, rate of death” value in data set [1], in data set [2] and in data set [3] was 100% each time.

With `CSCC(C)NC(=O)c1c(I)cccc1C(=O)Nc1ccc(Cn2nc(C(F)(F)F)nc2C(F)(F)F)cc1C` (stereo not shown) [compound 214], the “controlling effect, rate of death” value in data set [1], in data set [2] and in data set [3] was 100% in each case.

For `CSCC(C)NC(=O)c1c(I)cccc1C(=O)Nc1ccc(Cn2nc(C(F)(F)F)nc2C(F)(F)F)cc1C` (stereo not shown) [compound 215], the “controlling effect, rate of death” value in data set [1], in data set [2] and in data set [3] was 100% each time.

`Cc1cc(Cn2nc(C(F)(F)F)nc2C(F)(F)F)ccc1NC(=O)c1cccc(I)c1C(=O)NC(C)CS(C)(=O)=O` (stereo not shown) [compound 218]: the “controlling effect, rate of death” value in data set [1], in data set [2] and in data set [3] was 100% each time.

On to `CCSCC(C)NC(=O)c1c(I)cccc1C(=O)Nc1ccc(Cn2nc(C(F)(F)F)nc2C(F)(F)F)cc1C` (stereo not shown) [compound 220], for which the “controlling effect, rate of death” value in data set [1], in data set [2] and in data set [3] was 100% throughout.

For `CCS(=O)(=O)CC(C)NC(=O)c1c(I)cccc1C(=O)Nc1ccc(Cn2nc(C(F)(F)F)nc2C(F)(F)F)cc1C` (stereo not shown) [compound 222], the “controlling effect, rate of death” value in data set [1], in data set [2] and in data set [3] was 100% throughout.

As for `CSCC(C)NC(=O)c1c(I)cccc1C(=O)Nc1ccc(Cn2nc(C(F)(F)C(F)(F)F)nc2C(F)(F)F)cc1C` (stereo not shown) [compound 226], the “controlling effect, rate of death” value in data set [1], in data set [2] and in data set [3] was 100% each time.

One may read the melting point as the temperature, or range, at which the solid turns liquid. `CSCC(C)(C)NC(=O)c1c(I)cccc1C(=O)Nc1ccc(C(C)n2ccc(C(F)(F)F)n2)cc1C` (stereo not shown) [compound 558, N^2-(1,1-dimethyl-2-methylsulfanyl-ethyl)-3-iodo-N^1-{2-methyl-4-[1-(3-trifluoromethyl-1H-pyrazol-1-yl)-ethyl]-phenyl}-phthalamide] showed a melting point of 79 to 86 °C.

On to `Cc1cc(C(C)n2nc(C(F)(F)F)nc2C(F)(F)F)ccc1NC(=O)c1cccc(Cl)c1C(=O)N[C@@H](C)CS(C)(=O)=O` (stereo partly shown) [compound 570], for which the “controlling effect, rate of death” value in data set [1], in data set [2] and in data set [3] was 100% in each case.

In the case of `Cc1cc(C(C)n2nc(C(F)(F)F)nc2C(F)(F)F)ccc1NC(=O)c1cccc(I)c1C(=O)N[C@@H](C)C[S+](C)[O-]` (stereo partly shown) [compound 572], the “controlling effect, rate of death” value in data set [1], in data set [2] and in data set [3] was 100% each time.

In the case of `Cc1cc(C(C)n2nc(C(F)(F)C(F)(F)F)nc2C(F)(F)F)ccc1NC(=O)c1cccc(Cl)c1C(=O)N[C@@H](C)C[S+](C)[O-]` (stereo partly shown) [compound 579], the “controlling effect, rate of death” value in data set [1], in data set [2] and in data set [3] was 100% throughout.

`Cc1cc(Cn2cc(C(F)(F)C(F)(F)F)c(C(F)(F)C(F)(F)C(F)(F)F)n2)ccc1NC(=O)c1cccc(I)c1C(=O)N[C@@H](C)C[S+](C)[O-]` (stereo partly shown) [compound 920]: the “controlling effect, rate of death” value in data set [1], in data set [2] and in data set [3] was 100% each time.
